# “And” between values parts separate entries of the source, which are not always exact repeats. Identical values can stand only once. Like-named read-outs stand apart in the source and are kept apart here.
# What was measured:
# Experiment in all cases: MIC of compounds alone and combined with antibacterials, broth microdilution (CLSI)
# Format in all cases: cell-based
# [1] = test system: Escherichia coli (ECO) isolates; conditions: for MIC ATB in combination: CLA @ 4 μg/mL
# How it was run: (§1)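 First, log-phase suspensions are brought to 5.10^5 CFU/mL final in ca-MHB; plates then incubate 16-20 h at 35° C in air. Growth is judged visually, giving the compound MIC alone and the antibacterial MIC at each compound concentration.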
# [2] = test system: Klebsiella oxytoca (KOX) isolates
# How it was run: as §1
# [3] = test system: Providencia rettgeri (PRE) isolates
# How it was run: as §1
# [4] = test system: Serratia marcescens (SMA) isolates
# How it was run: as §1
compound,measurement,setting,value
"CC1(C)S[C@@H]2[C@H](NC(=O)[C@H](N)c3ccc(O)cc3)C(=O)N2[C@H]1C(=O)O [AMX, Amoxicillin]",MIC ATB in combination,[1]; ECO UFR209,32 µg/mL
same,MIC ATB in combination,[1]; ECO UFR210,8 µg/mL
same,MIC ATB in combination,[1]; ECO UFR211,8 µg/mL
same,MIC,"[1]; strain ECO 4133, genotype TEM-30, OXA-1",>256 µg/mL
same,MIC,"[1]; strain ECO 5302, genotype TEM-1, OXA-1",>256 µg/mL
same,MIC,"[1]; strain ECO 131119, genotype TEM-1, OXA-48",>1024 µg/mL
same,MIC,"[1]; strain ECO 180070, genotype TEM-1, CTX-M-15",>256 µg/mL
same,MIC,"[1]; strain ECO 190314, genotype CTX-M-1",>256 µg/mL
same,MIC,"[1]; strain ECO 190317, genotype TEM-1, SHV-12, CTX-M-15, OXA-1",>1024 µg/mL
same,MIC,"[1]; strain ECO 190457, genotype CTX-M-15, OXA-1",>256 µg/mL
same,MIC,"[1]; strain ECO 190549, genotype CTX-M-1",>256 µg/mL
same,MIC,"[1]; strain ECO 200159, genotype TEM-1, CTX-M-14",>256 µg/mL
same,MIC,"[1]; strain ECO 200259, genotype CTX-M-14",>256 µg/mL
same,MIC,"[1]; strain ECO 200344, genotype CTX-M-1",>256 µg/mL
same,MIC,"[1]; strain ECO 260096, genotype CTX-M-132",>256 µg/mL
same,MIC,"[1]; strain ECO 260304, genotype CTX-M-15",>256 µg/mL
same,MIC,"[1]; strain ECO 260508, genotype TEM-1, CTX-M-15, OXA-1",>256 µg/mL
same,MIC,"[1]; strain ECO RGN238, genotype OXA-1",>1024 µg/mL
same,MIC,"[1]; strain ECO UFR15, genotype TEM-1, OXA-48",>256 µg/mL
same,MIC,"[1]; strain ECO UFR16, genotype TEM-1, CTX-M-15, OXA-1, OXA-48",>256 µg/mL
same,MIC,"[1]; strain ECO UFR17, genotype TEM-1, CTX-M-15, CMY-2, OXA-1, OXA-181",>256 µg/mL
same,MIC,"[1]; strain ECO UFR18, genotype CTX-M-15, OXA-204",>256 µg/mL
same,MIC,"[1]; strain ECO UFR19, genotype CTX-M-15, CMY-2, OXA-1, OXA-204",>256 µg/mL
same,MIC,"[1]; strain ECO UFR20, genotype SHV-1, CTX-M-15, OXA-1, OXA-232",>256 µg/mL
same,MIC,"[1]; strain ECO UFR32, genotype TEM-1, VEB-1, OXA-10",>256 µg/mL
same,MIC,"[1]; strain ECO UFR39, genotype CTX-M-15, NDM-1",>1024 µg/mL
same,MIC,"[1]; strain ECO UFR41, genotype TEM-1, CTX-M-15, CMY-2, OXA-1, NDM-4",>256 µg/mL
same,MIC,"[1]; strain ECO UFR45, genotype TEM-1, CMY-4, OXA-1, OXA-48, VIM-1",>256 µg/mL
same,MIC,"[1]; strain ECO UFR52, genotype TEM-1, SHV-12, IMP-8",>256 µg/mL
same,MIC,"[1]; strain ECO UFR61O, genotype TEM-1, KPC-2",>256 µg/mL
same,MIC,"[1]; strain ECO UFR62, genotype TEM-1, CTX-M-9, KPC-2",>256 µg/mL
same,MIC,"[1]; strain ECO UFR74, genotype SHV-1, DHA-1",>256 µg/mL
same,MIC,"[1]; strain ECO UFR86, genotype ompC-, ompF-",16 µg/mL
same,MIC,"[1]; strain ECO UFR174, genotype TEM-1, KPC-2, OXA-1",>128 µg/mL
same,MIC,"[1]; strain ECO UFR175, genotype TEM-1, KPC-2, OXA-9",>128 µg/mL
same,MIC,"[1]; strain ECO UFR176, genotype KPC-3, OXA-9*",>128 µg/mL
same,MIC,"[1]; strain ECO UFR177, genotype TEM-1, CTX-M-15, OXA-1, OXA-2, NDM-1, RmtC, antibiotic alone",>128 µg/mL
same,MIC,"[1]; strain ECO UFR178, genotype TEM-1, CTX-M-15, OXA-9, NDM-1, antibiotic alone",>128 µg/mL
same,MIC,"[1]; strain ECO UFR179, genotype TEM-1, SHV-12, CTX-M-15, NDM-1, antibiotic alone",>128 µg/mL
same,MIC,"[1]; strain ECO UFR180, genotype TEM-1, CMY-30, OXA-1, NDM-1, antibiotic alone",>128 µg/mL
same,MIC,"[1]; strain ECO UFR181, genotype TEM-1, CTX-M-15, NDM-5, antibiotic alone",>128 µg/mL
same,MIC,"[1]; strain ECO UFR182, genotype CTX-M-15, OXA-1, NDM-6, antibiotic alone",>128 µg/mL
same,MIC,"[1]; strain ECO UFR183, genotype CTX-M-15, OXA-1, NDM-7, antibiotic alone",>128 µg/mL
same,MIC,"[1]; strain ECO UFR184, genotype CTX-M-15, CMY-4, OXA-1, OXA-204",>128 µg/mL
same,MIC,"[1]; strain ECO UFR185, genotype OXA-48",>128 µg/mL
same,MIC,"[1]; strain ECO UFR186, genotype TEM-1, CTX-M-14, OXA-48",>128 µg/mL
same,MIC,"[1]; strain ECO UFR187, genotype CTX-M-15, OXA-48",>128 µg/mL
same,MIC,"[1]; strain ECO UFR189, genotype TEM-1, CTX-M-15, OXA-48",>128 µg/mL
same,MIC,"[1]; strain ECO UFR190, genotype CTX-M-24, OXA-48",>128 µg/mL
same,MIC,"[1]; strain ECO UFR191, genotype TEM-1, CTX-M-24, OXA-48",>128 µg/mL
same,MIC,"[1]; strain ECO UFR204, genotype TEM-1, CMY-4, OXA-48, VIM-1, antibiotic alone",>128 µg/mL
same,MIC,"[1]; strain ECO UFR205, genotype CTX-M-15, VIM-4, antibiotic alone",>128 µg/mL
same,MIC,"[1]; strain ECO UFR206, genotype TEM-1, CTX-M-15, OXA-1, VIM-4, antibiotic alone",>128 µg/mL
same,MIC,"[1]; strain ECO UFR207, genotype CTX-M-15",>128 µg/mL
same,MIC,"[1]; strain ECO UFR208, genotype SHV-12",>128 µg/mL
same,MIC,"[1]; strain ECO UFR209, genotype TEM-1, CTX-M-15",>128 µg/mL
same,MIC,"[1]; strain ECO UFR210, genotype SHV-12",>128 µg/mL
same,MIC,"[1]; strain ECO UFR211, genotype TEM-24",>128 µg/mL
same,MIC,"[1]; strain ECO UFR212, genotype CMY-2",>128 µg/mL
same,MIC,"[1]; strain ECO UFR218, genotype TEM-1, SHV-1, CTX-M-15",>128 µg/mL
same,MIC,"[1]; strain ECO UFR252GO, genotype VIM-2, antibiotic alone",>128 µg/mL
same,MIC,"[1]; strain ECO UFR255, genotype NDM-1, antibiotic alone",>128 µg/mL
same,MIC,[2],>128 µg/mL
same,MIC ATB in combination,[2],>128 µg/mL
same,MIC,"[2]; strain KOX UFR21, genotype TEM-1, CTX-M-15, OXA-48",>256 µg/mL
same,MIC,"[2]; strain KOX UFR223, genotype SHV-11, OXA-48",>128 µg/mL
same,MIC,"[2]; strain KOX UFR224, genotype CTX-M-15, OXA-48",>128 µg/mL
same,MIC ATB in combination,[3],>128 µg/mL
same,MIC,"[3]; strain PRE UFR96, genotype CTX-M-15, NDM-1",>128 µg/mL
same,MIC,"[3]; strain PRE UFR97, genotype TEM-1, NDM-1",>128 µg/mL
same,MIC,"[3]; strain PRE UFR99, genotype OXA-1, OXA-181",>128 µg/mL
same,MIC,"[3]; strain PRE UFR236, genotype TEM-1, OXA-48",>128 µg/mL
same,MIC,[4],>128 µg/mL
same,MIC ATB in combination,[4],>128 µg/mL and 128 µg/mL
same,MIC ATB in combination,"[4]; SMA UFR30, AF2 @ 8 μg/mL",64 µg/mL
same,MIC ATB in combination,"[4]; SMA UFR239, CLA @ 4 μg/mL",64 µg/mL
same,MIC,"[4]; strain SMA UFR30, genotype OXA-405",>256 µg/mL
same,MIC,"[4]; strain SMA UFR134, genotype TEM-1, BES-1",>128 µg/mL
same,MIC,"[4]; strain SMA UFR135, genotype TEM-1, KPC-2",>128 µg/mL
same,MIC,"[4]; strain SMA UFR136, genotype TEM-1, SHV-12, KPC-2",>128 µg/mL
same,MIC,"[4]; strain SMA UFR140, genotype IMP-1",>128 µg/mL
same,MIC,"[4]; strain SMA UFR141, genotype OXA-48",>128 µg/mL
same,MIC,"[4]; strain SMA UFR142, genotype OXA-48",>128 µg/mL
same,MIC,"[4]; strain SMA UFR143, genotype CTX-M-15, OXA-1, OXA-48",>128 µg/mL
same,MIC,"[4]; strain SMA UFR238, genotype OXA-48",>128 µg/mL
